Consider one compound from patent US20100311726A1, “REDUCTION OF BETA-AMYLOID LEVELS BY TREATMENT WITH THE SMALL MOLECULE DIFFERENTIATION-INDUCING FACTOR” (priority 2007, published 2010).

Structures are written as SMILES. “Also recorded” adds a separate entry of the source.

In assay [1] the test system is CHO-7W cells. Kind of assay: Flow cytometry cell cycle distribution, CHO-7W. Particulars: 25 μM. The class given is cell-based, Chinese Hamster. The procedure:
Naïve and CHO-7W cells were collected by trypsin/EDTA treatment and counted using a haemocytometer. The cells (1×10^5) were deposited into 10 cm tissue culture dishes containing fresh media and grown for 24 hours prior to DIF-1 treatment (25 μM). Cells were grown in the presence of DIF-1 for approximately 20 hours. Cells harvested by the trypsin/EDTA treatment were suspended in hypotonic fluorochrome solution containing 50 ug/ml of propidium iodide, 0.1% sodium citrate, and 0.1% Triton X-100. Cells (5×10^4) for each sample were analyzed for fluorescence using the Massachusetts General Hospital cytology core. Cell cycle distribution was compared between vehicle and DIF-1 treated nave CHO cells, and CHO-7W cells. The percentage of cells in G0/G1, S-phase and G2/M represents the mean cell number±the standard deviation from at least 3 separate experiments.
CHO/APP cells were incubated with DIF-1 (25 μM) for the indicated periods and then harvested, fixed and stained with propidium iodide (PI) and fluorescence of nuclei was measured. Histogram peaks are labeled by phases. The percentages of cell number in the cell cycle phases are shown as means+/−S.E. of three independent experiments performed in duplicate. The effects of DIF-1 on CHO-7W cell growth is also a result of G0/G1 cell cycle block (50.1%±1.1) as measured by flow cytometry (FIG. 2B).
(A flow cytometer gives signals particle by particle.)

The test system of assay [2] is APP. Kind of assay: APP processing (mature APP, αCTF, βCTF) by western blot. The class given is cell-based, human. The procedure:
Total protein was collected in RIPA buffer plus protease inhibitors on ice and briefly sonicated. They lysate was centrifuged at 14,000 rpm for 15 minutes. […] After washing, the blots were probed with a polyclonal HRP-tagged secondary Ab (1:5000) for 1 hour at room temperature then visualized.
A second possibility is that DIF-1 potentiates the activity of y-secretase and processing of αCTFs and βCTFs. To assess this latter possibility, we examined the effect of DIF-1 in the presence of DAPT, a potent γ-secretase inhibitor. Even numbers of CHO-7W cells were plated in 6-well dishes and allowed to grow overnight. The next day, the media was removed and replaced with control media (2 ml) or media containing DAPT, DIF-1 or DAPT and DIF-1. […] After washing, blots were probed with HRP-conjugated secondary antibodies (1:5000) for 1 hour at room temperature. […] It would appear that the mechanism of DIF-1 on APP metabolism is not likely to involve γ-secretase activity, but might impact on either BACE1 levels or activity.
To evaluate this probability, we treated CHO-CAB cells that overexpress human APP^751 and human BACE1 with 30 μM of DIF-1. More specifically, even numbers of CHO-CAB cells were plated in 6-well dishes and allowed to grow overnight. The next day, the media was removed and replaced with control media (2 ml) or media containing DAPT, DIF-1 or DAPT and DIF-1. […] After washing, blots were probed with HRP-conjugated secondary antibodies (1:5000) for 1 hour at room temperature. Each treatment is shown above the blot. […] It would appear that DIF-1 has a greater effect on APP maturation in CHO-CAB cells. Longer exposures reveal the presence of mature APP bands in DIF-1 treated cells.
Next dose-dependent effects of DIF-1 on APP processing were examined. Even numbers of CHO-CAB cells were plated in 6-well dishes and allowed to grow overnight. The next day, cells were treated overnight with either vehicle or increasing concentrations of DIF-1 (5-30 μM).
On the technique in general: A western blot detects proteins with antibodies after separation by electrophoresis.

In the case of `CCCCCC(=O)c1c(O)c(Cl)c(OC)c(Cl)c1O` [DIF-1, 1-[3,5-dichloro-2,6-dihydroxy-4-methoxyphenyl]-1-hexanone], the “G0/G1 cell cycle block (percentage of cells)” value in assay [1] is given as 50.1%±1.1. The “APP maturation and αCTF and βCTF levels” value in assay [2] (CHO-7W, 30 μM DIF-1 alone) was “significant decrease in APP maturation and both αCTF and βCTF production; also recorded: significant decreases in both αCTF and βCTF levels”. The “αCTF and βCTF levels, simultaneous treatment with DAPT” value in assay [2] (CHO-7W, 30 μM DIF-1 plus 250 nM DAPT) was “increased, but not to the level seen with DAPT alone”. Moreover, in assay [2] (CHO-CAB, 30 μM), the “effect on APP metabolism with BACE1 overexpression” value is on record as “did not repress the effects of DIF-1 on APP metabolism”. In addition, in assay [2] (CHO-CAB, 5-30 μM), the “dose dependence of αCTF and βCTF reduction” value is “reduced both αCTFs and βCTFs in a dose-dependent manner”. In addition, in assay [2] (CHO-CAB, 5-30 μM overnight), the “concentration required to have an effect on mature APP levels” value was approximately 20 µM.
